Measured values published in ChEMBL document CHEMBL1201862, “PubChem BioAssay data set” (2004).
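A five-concentration, 48-hour dose response in 96-well plates underlies each endpoint, interpolated linearly between surrounding concentrations. GI50 marks 50% less growth.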 Active and inactive are the calls of the source. Cut-off read from the data, not from the text of the source: active = GI50 up to about 1.1 µM and inactive = higher.

Columns and labels:
Assay in all cases: growth of human tumour cells (NCI), 48 h
HOP-92 = tested on: HOP-92
DU-145 = tested on: DU-145
786-0 = tested on: 786-0
NCI-H460 = tested on: NCI-H460
K562 = tested on: K562
SF-539 = tested on: SF-539
SNB-75 = tested on: SNB-75
OVCAR-3 = tested on: OVCAR-3
UACC-257 = tested on: UACC-257
SK-MEL-5 = tested on: SK-MEL-5
UO-31 = tested on: UO-31
HCT-15 = tested on: HCT-15
HCT-116 = tested on: HCT-116
SF-295 = tested on: SF-295
RPMI-8226 = tested on: RPMI-8226
SK-MEL-2 = tested on: SK-MEL-2
OVCAR-4 = tested on: OVCAR-4
NCI/ADR-RES = tested on: NCI/ADR-RES
RXF 393 = tested on: RXF 393
MCF7 = tested on: MCF7
SF-268 = tested on: SF-268
IGROV-1 = tested on: IGROV-1
SN12C = tested on: SN12C
Hs-578T = tested on: Hs-578T
PC-3 = tested on: PC-3
OVCAR-8 = tested on: OVCAR-8
M14 = tested on: M14
MDA-MB-231 = tested on: MDA-MB-231
EKVX = tested on: EKVX
HCC 2998 = tested on: HCC 2998
NCI-H226 = tested on: NCI-H226
CAKI-1 = tested on: CAKI-1
Malme-3M = tested on: Malme-3M
LOX IMVI = tested on: LOX IMVI
MOLT-4 = tested on: MOLT-4
CCRF-CEM = tested on: CCRF-CEM
BT-549 = tested on: BT-549
NCI-H23 = tested on: NCI-H23
MDA-N = tested on: MDA-N
SNB-19 = tested on: SNB-19
A498 = tested on: A498
SR = tested on: SR
ACHN = tested on: ACHN
UACC-62 = tested on: UACC-62
TK-10 = tested on: TK-10
KM12 = tested on: KM12
SW-620 = tested on: SW-620
SK-MEL-28 = tested on: SK-MEL-28
SK-OV-3 = tested on: SK-OV-3
HT-29 = tested on: HT-29
A549 = tested on: A549
COLO 205 = tested on: COLO 205
HL-60 = tested on: HL-60
MDA-MB-435 = tested on: MDA-MB-435
OVCAR-5 = tested on: OVCAR-5
T47D = tested on: T47D
U-251 = tested on: U-251
NCI-H522 = tested on: NCI-H522
HOP-62 = tested on: HOP-62

Measured: GI50

CCOC(=O)C(Cc1ccc(O)cc1)Nc1nc(=O)c2c(=O)oc(Cl)cc2o1 (centres undefined)
inactive: HOP-92 7.31 µM | DU-145 17.3 µM | 786-0 9.12 µM | NCI-H460 16.4 µM | K562 3.06 µM | SF-539 5.79 µM | SNB-75 4.91 µM | OVCAR-3 6.78 µM | UACC-257 8 µM | SK-MEL-5 8.15 µM | UO-31 10.9 µM | HCT-116 6.38 µM | SF-295 16 µM | RPMI-8226 2.67 µM | SK-MEL-2 12.5 µM | OVCAR-4 12.6 µM | NCI/ADR-RES 20.9 µM | RXF 393 4.38 µM | MCF7 4.16 µM | SF-268 3.82 µM | IGROV-1 5.09 µM | SN12C 6.28 µM | Hs-578T 3.07 µM | PC-3 8.93 µM | OVCAR-8 3.39 µM | M14 4.15 µM | MDA-MB-231 6.1 µM | EKVX 12.4 µM | HCC 2998 6.59 µM | NCI-H226 19.7 µM | CAKI-1 4.73 µM | Malme-3M 3.17 µM | LOX IMVI 4.62 µM | MOLT-4 2.81 µM | CCRF-CEM 2.7 µM | BT-549 2.47 µM | NCI-H23 10.9 µM | MDA-N 2.85 µM | SNB-19 10.8 µM | A498 18.2 µM | SR 2.7 µM | ACHN 12.2 µM | UACC-62 11.4 µM | TK-10 6.58 µM | KM12 10.2 µM | SW-620 3.18 µM | SK-MEL-28 4.13 µM | SK-OV-3 14.4 µM | HT-29 3.52 µM | A549 16.1 µM | COLO 205 8.49 µM | HL-60 2.84 µM | MDA-MB-435 4.52 µM | OVCAR-5 17.8 µM | T47D 4.61 µM | U-251 7.19 µM | NCI-H522 4.13 µM | HOP-62 12.5 µM
4.33 µM: HCT-15

NC1=Nc2ccccc2Sc2nnc(-c3ccc(Cl)cc3)n21
7.16 µM: HCT-15
inactive: HOP-92 68.2 µM | DU-145 49.2 µM | 786-0 24 µM | NCI-H460 21.9 µM | K562 12.2 µM | SF-539 26.2 µM | SNB-75 17.3 µM | OVCAR-3 > 100 µM | UACC-257 > 100 µM | SK-MEL-5 68.5 µM | UO-31 > 100 µM | HCT-116 9.53 µM | SF-295 29.6 µM | RPMI-8226 87.3 µM | SK-MEL-2 > 100 µM | OVCAR-4 > 100 µM | NCI/ADR-RES 33.2 µM | RXF 393 22.8 µM | MCF7 > 100 µM | SF-268 19.5 µM | IGROV-1 48.8 µM | SN12C 38.1 µM | Hs-578T 35.2 µM | PC-3 16.5 µM | OVCAR-8 26.7 µM | M14 > 100 µM | MDA-MB-231 21.5 µM | EKVX 75.3 µM | HCC 2998 > 100 µM | NCI-H226 > 100 µM | CAKI-1 72.4 µM | Malme-3M > 100 µM | LOX IMVI 7.03 µM | MOLT-4 13.9 µM | CCRF-CEM 14.8 µM | BT-549 > 100 µM | NCI-H23 > 100 µM | MDA-N > 100 µM | SNB-19 46.8 µM | A498 20.4 µM | SR 11.2 µM | ACHN 47 µM | UACC-62 61.4 µM | TK-10 40.8 µM | KM12 98.2 µM | SW-620 57.1 µM | SK-MEL-28 > 100 µM | SK-OV-3 > 100 µM | HT-29 > 100 µM | A549 49.3 µM | COLO 205 76.7 µM | HL-60 8.59 µM | MDA-MB-435 > 100 µM | OVCAR-5 > 100 µM | T47D > 100 µM | U-251 13.7 µM | NCI-H522 8.18 µM | HOP-62 23.7 µM

O=C1c2cc([N+](=O)[O-])ccc2-c2cccc(F)c21
inactive: HOP-92 > 100 µM | DU-145 > 100 µM | 786-0 > 100 µM | NCI-H460 89.3 µM | K562 43 µM | SF-539 40.2 µM | SNB-75 > 100 µM | OVCAR-3 > 100 µM | UACC-257 65.3 µM | SK-MEL-5 70.6 µM | UO-31 85.3 µM | HCT-116 67.6 µM | SF-295 > 100 µM | RPMI-8226 64.1 µM | SK-MEL-2 21.2 µM | OVCAR-4 > 100 µM | NCI/ADR-RES > 100 µM | RXF 393 42.9 µM | MCF7 31.3 µM | SF-268 44.3 µM | IGROV-1 40.7 µM | SN12C > 100 µM | Hs-578T 52.1 µM | PC-3 73.8 µM | OVCAR-8 43.1 µM | M14 > 100 µM | MDA-MB-231 > 100 µM | EKVX 18.9 µM | HCC 2998 80.2 µM | NCI-H226 96.4 µM | CAKI-1 > 100 µM | LOX IMVI 60 µM | MOLT-4 42.3 µM | CCRF-CEM 23.7 µM | BT-549 > 100 µM | NCI-H23 > 100 µM | MDA-N 72.3 µM | SNB-19 > 100 µM | A498 65.6 µM | SR 30.3 µM | ACHN > 100 µM | UACC-62 56.1 µM | TK-10 > 100 µM | KM12 79.4 µM | SW-620 48.3 µM | SK-MEL-28 > 100 µM | SK-OV-3 > 100 µM | HT-29 > 100 µM | A549 > 100 µM | COLO 205 > 100 µM | HL-60 38.5 µM | MDA-MB-435 76.7 µM | OVCAR-5 > 100 µM | T47D 23.2 µM | U-251 90.4 µM | NCI-H522 44.5 µM | HOP-62 > 100 µM
37.1 µM: HCT-15

N#CC1=C(N)OC2=C(CCCc3ccc([N+](=O)[O-])cc32)C1c1ccccc1 (centres undefined)
2.45 µM: HCT-15
inactive: HOP-92 6.46 µM | DU-145 4.86 µM | 786-0 9.98 µM | NCI-H460 4.49 µM | K562 2.57 µM | SF-539 3.17 µM | SNB-75 82.8 µM | OVCAR-3 2.21 µM | UACC-257 5.13 µM | SK-MEL-5 3.38 µM | UO-31 8.79 µM | HCT-116 4.23 µM | SF-295 3.21 µM | RPMI-8226 2.9 µM | SK-MEL-2 4.58 µM | OVCAR-4 6.41 µM | NCI/ADR-RES 2.38 µM | RXF 393 4.18 µM | MCF7 3.45 µM | SF-268 5.41 µM | IGROV-1 4.19 µM | SN12C 6 µM | Hs-578T 15.9 µM | PC-3 8.3 µM | OVCAR-8 7.48 µM | M14 3.13 µM | MDA-MB-231 17.7 µM | EKVX 6.19 µM | HCC 2998 2.18 µM | NCI-H226 8.3 µM | CAKI-1 9.25 µM | Malme-3M 7.45 µM | LOX IMVI 5.35 µM | MOLT-4 3.69 µM | BT-549 4.5 µM | NCI-H23 4.97 µM | MDA-N 2.09 µM | SNB-19 5.86 µM | A498 2.76 µM | SR 2.36 µM | ACHN 10.8 µM | UACC-62 1.98 µM | TK-10 12.4 µM | KM12 3.15 µM | SW-620 3.63 µM | SK-MEL-28 5.82 µM | SK-OV-3 8.07 µM | HT-29 3.44 µM | A549 6.21 µM | COLO 205 3.69 µM | HL-60 1.64 µM | MDA-MB-435 1.42 µM | OVCAR-5 11 µM | T47D 6.24 µM | U-251 4.71 µM | NCI-H522 2.14 µM | HOP-62 4.17 µM
